Results on 5 molecules are retold here after patent publication US20200375954A1, “THERAPEUTIC AGENT FOR FOOD COMPETENCE DISORDER IN STOMACH” (ZERIA PHARMACEUTICAL CO., LTD., priority 2002, published 2020).

For data set [1], the system named is adult male mongrel dog (gastric fundus). In words: Barostat test in dog. It is filed as in vivo. The settings on record: for Volume change of Air-bag / Activity of alleviating impaired gastric accommodation (in words): i.v.; for Volume change of Air-bag: 5 minutes after liquid test meal, mean air-bag volume after vs before agent, mean ± standard error; for Volume increase of air-bag, ΔmL: method of Example 1, N=1; for Activity of alleviating impaired gastric accommodation (in words): barostat test in dog. On the procedure:
A gastric fistula (KN-365, D-14-C from Natsume Seisakusyo Co., Ltd.) was installed permanently in the center of stomach anterior wall of an adult male mongrel dog, and was used for air-bag insertion.
The fistula-installed dog was abstained from food for not shorter than 18 hours, followed by opening the gastric fistula and washing inside stomach by infusion of saline into stomach, before starting experiment. This procedure was repeated 2 to 3 times as appropriate. The air-bag (maximal volume: about 750 mL) fabricated using a commercially available polyethylene bag was inserted into stomach through gastric fistula and fixed using a silicone plug, followed by connection to barostat instrument and starting measurement under nonrestraint condition. Volume change of the air-bag was recorded on both a recorder and a computer.
After insertion of the air-bag into stomach, the bag was once infused with air up to 500 mL, followed by immediate and complete air evacuation, and starting recording by adjusting initial inner pressure of the air-bag to be 6±2 mmHg. After stabilization for not shorter than 15 minutes, 50 mL of a liquid test meal (12.5 kcal, Besvion^RT from Fujisawa Pharmaceutical Co., Ltd.) dissolved in warm water (30 to 40° C.) was […] administered into stomach. Five minutes after administration of the test meal, a solvent and test agents were administrated intravenously. Mean air-bag volumes (mL) for each 5 minutes before administration of the test meal, along with before and after administration of the test agents were calculated using a computer analyzing system to compare differences in mean air-bag volumes (mL) before and after administration of the test agents.

The conditions of data set [2]: known side effect; cited from earlier work.
For data set [3], the system named is patient with functional dyspepsia (stomach). In words: Barostat test in human. It is filed as in vivo. On the procedure:
A patient with functional dyspepsia, based on Rome II standard, was fasted overnight (for not shorter than 12 hours). Oral administration of 300 mg of a compound a, hydrochloride, and placebo has been conducted by a responsive doctor of clinical trial. Thirty minutes later, a polyvinyl adhesive plastic bag with dual ducts (1100 mL, maximal diameter: 17 cm, from Meditronic-Synetics Medical Ltd., Enfield, UK) was folded up to a small piece and introduced into stomach through mouth or nose, and the ducts were fixed on chin by an adhesive tape. The location of the bug in fundus of stomach was confirmed by radioscopy.
The polyvinyl tubing was connected to a computer controlled volume-replacement pressure regulator. This regulator can simultaneously monitor pressure and volume with sampling rate of 8 times per second, and also can load volume ramps and pressurizing steps with various rates. Trial subjects were kept in recumbent position and predetermined volume of air (300 mL) was infused for 2 minutes to expand the bug in stomach, and again the air was evacuated completely. After stabilization for 10 minutes, the trial subjects were allowed to keep relaxed by slightly skewing knees on a bed.
After 30 minutes of adaptation period, minimum invasive gastric dilatation pressure (MDP), that is, the minimum pressure to give not less than 30 mL of the bag inner volume, was measured by increasing inner pressure by 1 mmHg per minute. This pressure (MDP) […] equilibrates intraabdominal pressure. Then, pressure was increased from the MDP stepwisely with isobaric expansions by each 2 mmHg. At each pressure increase step, corresponding inner volume of stomach was recorded, and kept for 2 minutes. At the end of each expansion step, patients were asked to express feeling of stimulation at upper abdomen by scores from 0 to 6 with verbal explanation. The expansion procedure was terminated when inner volume of the bag reached to 1000 mL or the patient complained discomfort or soreness (score: 5 or 6).
Further, after 30 minutes of adaptation period, the pressure level was adjusted to the MDP+2 mmHg, and kept for 90 minutes. Thirty minutes later, a mixed liquid diet (200 mL, 300 kcal, protein 13%, carbohydrate 39%, Nutridrink™, Nutricia) was given by oral ingestion, followed by measurement of stomach tension over further 60 minutes.
Average inner volume of the balloon for each 2 minutes expansion period was obtained from the recorded value. […]
To evaluate stomach tension before and after meal, average volume of the balloon was measured continuously at every 5 minutes. The maximum relaxation value was obtained as difference between average volume before meal and the maximum volume after meal among average volumes measured at every 5 minutes after meal.

Counter-ions that a name gives are not always drawn.

In the case of `COc1cc(N)c(Cl)cc1C(=O)NC1CCN(CCCOc2ccc(F)cc2)CC1OC` (stereo not drawn) [Cisapride, reference compound], the “Volume change of Air-bag” value in data set [1] (0.3 mg/kg) was found to be 3.6 ± 25.0 mL. Further, in data set [2], the “Extension of Q-T interval (adverse effect)” value is reported as “serious side effect such as extension of Q-T interval”.

`COc1cc(O)c(C(=O)Nc2nc(C(=O)NCCN(C(C)C)C(C)C)cs2)cc1OC` [Compound a, hydrochloride, 2-[N-(4,5-dimethoxy-2-hydroxybenzoyl)amino]-4-[(2-diisopropylaminoethyl)aminocarbonyl]-1,3-thiazole]: the “Volume change of Air-bag” value in data set [1] (3 mg/kg) is 50.8 ± 16.7 mL. In addition, in data set [1] (3 mg/kg, listed as compound a, hydrochloride), the “Volume change of Air-bag” value turned out to be 50.8 mL. Also, in data set [1] (compound a 3 mg/kg i.v. vs cisapride 0.3 mg/kg i.v.), the “Expansion effect compared with cisapride” value is “surpassed that of cisapride”. In addition, in data set [3] (300 mg, p.o.), the “Effect on maximum relaxation value of stomach after meal (in words)” value was “significantly increased”. Moreover, in data set [3] (300 mg, p.o., N=17, after meal), the “Change in max. relaxation volume” value is on record as 24.3 ± 172.3 mL and the “Max. relaxation volume after treatment” value is reported as 313.4 mL. Moreover, the “Max. relaxation volume before treatment” value in data set [3] (baseline of the 300 mg p.o. group, N=17, after meal) came out at 295.5 mL.

In the case of `COc1cc(Cl)c(C(=O)Nc2nc(C(=O)NCCN(C(C)C)C(C)C)cs2)cc1OC` [Compound b, Maleate, 2-[N-(2-chloro-4,5-dimethoxybenzoyl)-amino]-4-[(2-diisopropylaminoethyl)aminocarbonyl]-1,3-thiazole], the “Volume increase of air-bag, ΔmL” value in data set [1] (1 mg/kg i.v.) is 29.7 mL. Also, in data set [1], the “Activity of alleviating impaired gastric accommodation (in words)” value (from here on “Activity”) was “excellent activity of alleviating impaired gastric accommodation”.

Consider `COc1ccc(C(=O)Nc2nc(C(=O)NCCN(C(C)C)C(C)C)cs2)cc1OC` [Compound c, hydrochloride, 2-[N-(4,5-dimethoxy-benzoyl)amino]-4-[(2-diisopropylaminoethyl)amino-carbonyl]-1,3-thiazole], for which the “Volume increase of air-bag, ΔmL” value in data set [1] (1 mg/kg i.v.) came to 58.2 mL. Moreover, the “Activity” value in data set [1] is “excellent activity of alleviating impaired gastric accommodation”.

`COc1cc(O)c(C(=O)Nc2cc(C(=O)NCCN(C(C)C)C(C)C)co2)cc1OC.O=C(O)/C=C\C(=O)O` [Compound d, Maleate, 2-[N-(4,5-dimethoxy-2-hydroxybenzoyl)amino]-4-[(2-diisopropyl-aminoethyl)aminocarbonyl]furan]: in data set [1] (3 mg/kg i.v.), the “Volume increase of air-bag, ΔmL” value was 11.4 mL. Moreover, the “Activity” value in data set [1] is given as “excellent activity of alleviating impaired gastric accommodation”.
